One molecule from patent US20080033026A1, “Antimicrobial compositions, methods and systems” (priority 2006, published 2008) can be followed below.

For the experiment, the system named is Escherichia coli 0157:H7 (ATCC 43895). In words: Time-kill determination. In kind it is cell-based. As for the experimental part: The assessment of efficacy of 9-decenoic acid against a spectrum of microorganisms was determined using the American Society for Testing and Materials (ASTM) procedure entitled “Standard Test Method for the Assessment of Microbiocidal Activity of Test Materials Using a Time-Kill Procedure,” October 1998. This procedure incorporates the recommendations described in the “Manual of Clinical Microbiology,” 5th ed., edited by A. B. Balows et al., ASM, Washington, and is directed by the Federal Register, June 1994.
Challenge organisms were prepared as follows. Cultures of the following organisms were obtained: Staphylococcus aureus (ATCC 6538), Pseudomonas aeruginosa (ATCC 15442), Staphylococcus epidermidis (ATCC 12228), Klebsiella pneumoniae (ATCC 4352), Escherichia coli 0157:H7 (ATCC 43895) and Candida albicans (ATCC 10231). The stock cultures were transferred to sterile tubes and sterile tryptic soy broth (TSB) was added to the cultures. The mixture was incubated for 18-24 hours at 37° C. (±2° C.). A portion of this culture was then transferred onto TSA plates and incubated for 18-24 hours at 37° C. (±2° C.). The plates were removed from incubation and the bacterial growth was washed from the agar surface using Butterfield's Phosphate Buffered Dilution Water (PBDW).
The bacterial suspension was adjusted to contain approximately 10^8 Colony Forming Units (CFU) per ml with PBDW. The concentration was adjusted to an optical density (OD) of 0.4-0.5 (versus a PBDW blank) at 620 nm in a UV-Vis spectrophotometer, and this optical density gave approximately 10^8 colony forming units per milliliter (cfu/ml). The standardized suspension was stored under appropriate conditions until it was used as the challenge inoculum.
Concentrated 9-decenoic acid (97%) was diluted in filter sterilized isopropanol to yield a 25,000 ppm stock solution. Subsequent dilutions to the 9-decenoic acid stock solutions were made with sterile Deionized Water (DI) to achieve concentrations of 0.1%, 0.05%, 0.01% and 0.001%. The pH was determined for each dilution; pH values ranged from 4.4-4.1. […] In addition, 9-decenoic acid stock solution was combined with Triclosan™ (obtained from Ciba Specialty Chemical Corporation, under the tradename Irgasan DP 300™) in various ratios, as indicated in Table 8. The pH of the combined solution was 7.
Compliant with the ASTM procedure cited, for each challenge microorganism a 9.9 ml aliquot of the prepared 9-decenoic acid suspension was added to a sterile tube. A 0.1 ml aliquot of the standardized inoculum was added to the 9-decenoic acid solution representing the start of the test exposure. The inoculated 9-decenoic acid solution was immediately mixed thoroughly. The inoculated suspension was held at room temperature for 0.5, 2, 5, 7 and 10-minute exposure times for tests run at pH level of approximately 4. The pH 7 tests were held at room temperature for 0.5 and 2 minutes.
At each exposure sample time, a 1.0 ml aliquot of the inoculated 9-decenoic acid suspension was transferred to 9.0 ml of D/E Neutralizing Broth. Additional ten-fold serial dilutions were made in PBDW and plated in duplicate on TSA. All plates were incubated for 48 hours at 37° C. (±2° C.) and visually examined for growth. The plates were enumerated, recorded and log kill determined for each time point.
The following study controls were conducted: culture purity, neutralizer sterility, initial suspension population, test population, neutralization verification and a negative control using isopropanol. Culture purity was verified by performing a streak plate for isolated colonies of each culture used. All cultures were determined to be pure based on consistent colony morphology typical for the test organism. The neutralizer sterility was confirmed by no growth in an incubated sample.
The populations of the initial and test culture were determined by serial dilution, plating and enumerating after incubation. The initial suspension were determined to be ≧10^4 CFU/ml. […]

`C=CCCCCCCCC(=O)O` [9-decenoic acid]: the Log reduction is, setting by setting: (0.01% 9-decenoic acid, pH 4.4, exposure 0.5 min) 1.3 log; (0.01% 9-decenoic acid, pH 4.4, exposure 2 min) 1.6 log; (0.01% 9-decenoic acid, pH 4.4, exposure 5 min) 2.2 log; (0.01% 9-decenoic acid, pH 4.4, exposure 7 min) 1.8 log; (0.01% 9-decenoic acid, pH 4.4, exposure 10 min) 2.7 log; (0.05% 9-decenoic acid, pH 4.1, exposure 0.5 min) >6.2 log. Moreover, the Log reduction (0.05% 9-decenoic acid, pH 4.1, exposure 2 min) is given as >6.2 log; the Log reduction (0.05% 9-decenoic acid, pH 4.1, exposure 5 min) was >6.2 log; the Log reduction (0.05% 9-decenoic acid, pH 4.1, exposure 7 min) was >6.2 log; the Log reduction (0.05% 9-decenoic acid, pH 4.1, exposure 10 min) was >6.2 log; the Log reduction (0.05% 9-decenoic acid, pH 7, exposure 0.5 min) was 0 log; the Log reduction (0.05% 9-decenoic acid, pH 7, exposure 2 min) was found to be 0 log. For the same molecule, the Log reduction by setting is: (0.1% 9-decenoic acid, pH 4.1, exposure 0.5 min) >6.2 log; (0.1% 9-decenoic acid, pH 4.1, exposure 2 min) >6.2 log; (0.1% 9-decenoic acid, pH 4.1, exposure 5 min) >6.2 log; (0.1% 9-decenoic acid, pH 4.1, exposure 7 min) >6.2 log; (0.1% 9-decenoic acid, pH 4.1, exposure 10 min) >6.2 log; (0.5% 9-decenoic acid, pH 7, exposure 0.5 min) 0 log. Also, the Log reduction was 0 log (0.5% 9-decenoic acid, pH 7, exposure 2 min); 0.83 log (0.75% 9-decenoic acid, pH 7, exposure 0.5 min); >4.2 log (0.75% 9-decenoic acid, pH 7, exposure 2 min); >4.2 log (1% 9-decenoic acid, pH 7, exposure 0.5 min); >4.2 log (1% 9-decenoic acid, pH 7, exposure 2 min). Besides, the “Enhancement of disinfectant activity of marginally-effective concentrations of Triclosan” value (0.5% 9-decenoic acid added to Triclosan, pH 7) is listed as 1-2 log reductions.
